Test results published in patent US12673070B2, “Treatment of sepsis and hypercytokinemia” (TX MEDIC AB, priority 2020, dated 2026).
“Also recorded” adds a separate entry of the source.

Tests used:
human purified monocytes = test: Stimulated IL-6 release from human purified monocytes (ELISA), Example 2; format: cell-based; details: 24 hours, LMW-DS 60-600 μg/ml, heparin 2.0-20 μg/ml, dexamethasone 3.0 μM, n=10 donors; for LPS-stimulated IL-6 release into the cell culture supernatant: LPS (0.01 ng/ml); for peptidoglycan-stimulated IL-6 release into the cell culture supernatant: peptidoglycan (30 ng/ml)
Method: Peripheral blood mononuclear cells (PBMC) were isolated from healthy donors through Ficoll-Paque PLUS (GE Healthcare; 11778538) density centrifugation. Monocytes were purified using the EasySep™ human monocyte enrichment kit (StemCell) that purifies monocytes ‘untouched’ to maintain their phenotype.
Monocytes were cultured in the absence (unstimulated PBS vehicle controls) or presence of stimulation (LPS or peptidoglycan) in the absence (vehicle) or presence of LMW-DS (ILB®, Tikomed AB, Viken, Sweden, WO 2016/076780; three concentrations: 600 μg/ml, 200 μg/ml and 60 μg/ml), heparin (2.0, 6.0 or 20 μg/ml; equivalent to 0.406, 1.218 and 4.06 units/ml; Sigma Aldrich) or dexamethasone (3.0 μM; Sigma Aldrich) for 24 hours at 37° C., 5% CO2. Following centrifugation, cell culture supernatants were removed and stored at −20° C. awaiting analysis for IL-6 by ELISA. Levels of IL-6 were quantified in the supernatant by ELISA (R&D systems) according to manufacturer's instructions.

[1] = monoclonal antibodies neutralizing TNFα; cited from earlier work
[2] = test system: human peripheral blood mononuclear cells (PBMCs); test: Stimulated release of IL-6 from human PBMCs in vitro (ELISA), Example 1; format: cell-based; details: 24 hours
Method: PBMCs were isolated from healthy donors through Ficoll-Paque PLUS (GE Healthcare; 11778538) density centrifugation. PBMC were cultured at 2×10^5 cells/well in the absence (unstimulated phosphate-buffered saline (PBS) vehicle controls) or presence of stimulation (lipopolysaccharide (LPS), peptidoglycan, pokeweed mitogen, phytohemagglutinin-L (PHA-L), CpG+IL-15, or Cytostim) in the absence (vehicle) or presence of LMW-DS (ILB®, Tikomed AB, Viken, Sweden, WO 2016/076780) at three concentrations; 60 μg/ml, 200 μg/ml and 600 μg/ml for 24 hours at 37° C., 5% CO2. Following centrifugation, cell culture supernatants were removed and stored at −20° C. awaiting analysis for IL-6 by ELISA. Levels of IL-6 were quantified in the supernatant by ELISA (R&D systems; DY206) according to manufacturer's instructions.

human PBMCs = test: Cytokine secretion from stimulated human PBMCs (5-plex Luminex), Example 3; format: cell-based; details: 24 hours; for stimulated secretion of IL-1β / stimulated secretion of IL-8 / stimulated secretion of TNFα: highest concentration of LMW-DS
Method: Example 1 investigated the ability of LMW-DS to modify the secretion of IL-6 from human PBMCs arising from the use of various stimuli. The present study performed a broader analysis of the cell culture supernatants arising from Example 1. Thus, peripheral blood mononuclear cells (PBMC) were isolated from healthy donors through Ficoll-Paque PLUS density centrifugation. The PBMC were cultured at 2×10^5 cells/well in the absence (unstimulated PBS vehicle controls) or presence of stimulation (LPS, peptidoglycan, pokeweed mitogen, PHA-L, CpG+IL-15, or Cytostim) in the absence (vehicle) or presence of LMW-DS (ILB®, Tikomed AB, Viken, Sweden, WO 2016/076780; three concentrations; 600 μg/ml, 200 μg/ml and 60 μg/ml) for 24 hours at 37° C., 5% CO2.
Accordingly, the treatments were as follows for each PBMC donor: • i. Vehicle • ii. Simulation • iii. Stimulation+LMW-DS (60 μg/ml) • iv. Stimulation+LMW-DS (200 μg/ml) • v. Stimulation+LMW-DS (600 μg/ml)
with each assessed in triplicate such that the total numbers of samples were: • 1. LPS; 165 samples (from 11 donors) • 2. Peptidoglycan from Bacillus subtilis; 90 samples (from 6 donors) • 3. PHA-L; 90 samples (from 6 donors) • 4. 0.2 μM CpG+IL-15; 90 samples (from 6 donors) • 5. 1.0 μM CpG+IL-15; 90 samples (from 6 donors) • 6. Pokeweed mitogen; 90 samples (from 6 donors) • 7. 10 μl/ml Cytostim; 90 samples (from 6 donors) • 8. 30 μl/ml Cytostim; 90 samples (from 6 donors) • Total number of supernatant samples from all stimulations (all cell types)=795
Following treatment, cell culture supernatants were removed, centrifuged and stored at −20° C. before thawing for multiplex analysis of various cytokines using the 5-plex human magnetic Luminex assay from R&D systems (Cat. No. LXSAHM-05). Luminex analysis was carried out exactly following manufacturer's protocols.

IL-6 = test: Serum IL-6 in MND/ALS patients treated with LMW-DS (Luminex), Example 4; format: in vivo, human; details: 8 ALS patients; weekly 1.0 mg/kg s.c.; measured at 10 weeks of treatment
Text: Serum samples were taken from Motor Neuron Disease (MND)/Amyotrophic Lateral Sclerosis (ALS) patients in a clinical trial (EudraCT Number: 2018-000668-28) prior to and 5, 10 and 24 weeks following treatment with LMW-DS (ILB®, Tikomed AB, Viken, Sweden, WO 2016/076780). Frozen serum samples were thawed and quantified for IL-6 using the Luminex assay system (Bio-Plex 200 system with Bio-Plex Manager software) according to manufacturer's instructions. After an initial screening visit, patients had weekly dosing of a single LMW-DS (ILB®, Tikomed AB, Viken, Sweden, WO 2016/076780) injection of 1.0 mg/kg body weight in saline into the subcutaneous fat of the lower abdomen with a maximum of 1.5 mL at each injection site.
Statistical analysis was performed using the non-parametric Mann-Whitney U test with p<0.05 considered significant.

[3] = LPS (0.01 ng/ml) stimulated PBMC, 60, 200, 600 μg/ml
[4] = LPS (0.01 ng/ml) stimulated PBMC, 60, 200, 600 μg/ml, listed as Dextran sulfate
[5] = PHA-L (1.0 μg/ml) stimulated PBMC, 60, 200, 600 μg/ml
[6] = pokeweed mitogen (1.0 μg/ml) stimulated PBMC, 60, 200, 600 μg/ml
[7] = pokeweed mitogen (1.0 μg/ml) stimulated PBMC, 60, 200, 600 μg/ml, listed as dextran sulfate
[8] = Cytostim stimulated PBMC, listed as Dextran sulfate
[9] = LPS (0.01 ng/ml) stimulated PBMC
[10] = LPS (0.01 ng/ml) stimulated PBMC, listed as Dextran sulfate
[11] = PHA-L (1.0 μg/ml) stimulated PBMC
[12] = PHA-L (1.0 μg/ml) stimulated PBMC, listed as Dextran sulfate
[13] = peptidoglycan (30 ng/ml) stimulated PBMC
[14] = pokeweed mitogen (1.0 μg/ml) stimulated PBMC

heparin [reference compound]
LPS-stimulated IL-6 release into the cell culture supernatant (human purified monocytes): concentration dependent statistically significant enhancement; also recorded: did not significantly suppress IL-6 levels in LPS activated monocytes but rather increased the levels | peptidoglycan-stimulated IL-6 release into the cell culture supernatant (human purified monocytes): enhancement was mirrored to some extent by heparin although the trend did not reach statistical significance

adalimumab
half-life [1]: around 14 days

certolizumab
half-life [1]: around 14 days

low molecular weight dextran sulfate [LMW-DS]
IL-6 release ([2]; CpG (0.2 μM)+IL-15 (15 ng/ml) stimulated PBMC): not generally impacted | IL-6 release ([2]; Cytostim (10 μl/ml) stimulated PBMC): not generally impacted | IL-6 release into the cell culture supernatant [2, 3]: concentration dependent and statistically significant reduction | IL-6 release into the cell culture supernatant [2, 4]: concentration dependent reduction | IL-6 release into the cell culture supernatant ([2]; LPS (0.01 ng/ml) stimulated PBMC, 60, 200, 600 μg/ml, listed as dextran sulfate): suppress IL-6 cytokine production | IL-6 release [2, 5]: inhibited significantly in a concentration-dependent manner | IL-6 release ([2]; higher concentration CpG (1.0 μM)+IL-15 (15 ng/ml) stimulated PBMC): no general impact | IL-6 release ([2]; higher concentration CpG (1.0 μM)+IL-15 (15 ng/ml) stimulated PBMC, listed as dextran sulfate): not significantly affecting | IL-6 release ([2]; higher concentration Cytostim (30 μl/ml) stimulated PBMC): no general impact | IL-6 release ([2]; higher concentration Cytostim (30 μl/ml) stimulated PBMC, listed as dextran sulfate): not significantly affecting | IL-6 release into the cell culture supernatant ([2]; peptidoglycan (30 ng/ml) stimulated PBMC, 60, 200, 600 μg/ml): little evidence of LMW-DS, even at the highest concentration tested, of causing a general reduction in IL-6 release | IL-6 release into the cell culture supernatant ([2]; peptidoglycan (30 ng/ml) stimulated PBMC, 60, 200, 600 μg/ml, listed as dextran sulfate): not significantly affecting | IL-6 release [2, 6]: not impacted generally | IL-6 release [2, 7]: not significantly affecting | LPS-stimulated IL-6 release into the cell culture supernatant (human purified monocytes): concentration dependent statistically significant inhibition | LPS-stimulated IL-6 release into the cell culture supernatant (human purified monocytes; listed as Dextran sulfate): concentration dependent reduction | peptidoglycan-stimulated IL-6 release into the cell culture supernatant (human purified monocytes): concentration dependent statistically significant increase | secretion of IL-8 (human PBMCs; CpG+IL-15 stimulated PBMC): little impact | IL-10 secretion (human PBMCs; Cytostim stimulated PBMC, 60, 200, 600 μg/ml): concentration dependent large reduction | IL-10 secretion (human PBMCs; Cytostim stimulated PBMC, 60, 200, 600 μg/ml, listed as Dextran sulfate): reduction | secretion of IFNγ (human PBMCs; Cytostim stimulated PBMC): small reductions | secretion of IL-1β (human PBMCs; Cytostim stimulated PBMC): small reductions | secretion of IL-8 (human PBMCs; Cytostim stimulated PBMC): small reductions | secretion of TNFα (human PBMCs; Cytostim stimulated PBMC): small reductions | secretion of IFNγ (human PBMCs; [8]): reduction | secretion of IL-8 (human PBMCs; [8]): reduction | secretion of TNFα (human PBMCs; [8]): reduction | secretion of IFNγ (human PBMCs; [3]): concentration dependent but small reduction | secretion of IL-10 (human PBMCs; [3]): concentration dependent but small reduction | secretion of IFNγ (human PBMCs; [4]): reduction | secretion of IL-10 (human PBMCs; [4]): reduction | stimulated secretion of IL-1β (human PBMCs; [9]): modest reduction | stimulated secretion of IL-8 (human PBMCs; [9]): modest reduction | stimulated secretion of TNFα (human PBMCs; [9]): modest reduction | stimulated secretion of IL-1β (human PBMCs; [10]): reduction | stimulated secretion of IL-8 (human PBMCs; [10]): reduction | stimulated secretion of TNFα (human PBMCs; [10]): reduction | IL-10 secretion (human PBMCs; [5]): large, concentration dependent decrease | IL-10 secretion (human PBMCs; PHA-L (1.0 μg/ml) stimulated PBMC, 60, 200, 600 μg/ml, listed as Dextran sulfate): reduction | stimulated release of IFNγ (human PBMCs; [11]): small decreases | stimulated release of IL-8 (human PBMCs; [11]): small decreases | stimulated release of TNFα (human PBMCs; [11]): small decreases | stimulated release of IFNγ (human PBMCs; [12]): reduction | stimulated release of TNFα (human PBMCs; [12]): reduction | IL-1β secretion (human PBMCs; [13]): associated increases | TNFα secretion (human PBMCs; [13]): associated increases | cytokine release (IL-8) (human PBMCs; peptidoglycan (30 ng/ml) stimulated PBMC, up to highest concentration tested): little evidence of LMW-DS, even at the highest concentration tested, of causing a general reduction in cytokine release | IL-10 secretion (human PBMCs; [6]): concentration-dependent decrease | IL-10 secretion (human PBMCs; [7]): reduction | secretion of IFNγ (human PBMCs; [14]): not impacted generally | secretion of IL-1β (human PBMCs; [14]): not impacted generally | secretion of IL-8 (human PBMCs; [14]): not impacted generally | secretion of TNFα (human PBMCs; [14]): not impacted generally | serum IL-6 levels as % of Pre-LMW-DS levels (IL-6): statistically significant decrease

infliximab
half-life [1]: around 14 days
